# Patent publication US12643910B2, “Substituted pyrazolo[3,4-b]pyridines as ectonucleotide pyrophosphatase/phosphodiesterase 1 (ENPP1) modulators” (SANFORD BURNHAM PREBYS MEDICAL DISCOVERY INSTITUTE, priority 2019, dated 2026)
# Columns and labels:
# ENPP3 = molecular target: T1, ENPP3 (Homo sapiens, UniProt O14638); assay: ENPP3 Km ATP assay; type: biochemical; settings: ATP at Km
# T1 sequence (O14638 1-875): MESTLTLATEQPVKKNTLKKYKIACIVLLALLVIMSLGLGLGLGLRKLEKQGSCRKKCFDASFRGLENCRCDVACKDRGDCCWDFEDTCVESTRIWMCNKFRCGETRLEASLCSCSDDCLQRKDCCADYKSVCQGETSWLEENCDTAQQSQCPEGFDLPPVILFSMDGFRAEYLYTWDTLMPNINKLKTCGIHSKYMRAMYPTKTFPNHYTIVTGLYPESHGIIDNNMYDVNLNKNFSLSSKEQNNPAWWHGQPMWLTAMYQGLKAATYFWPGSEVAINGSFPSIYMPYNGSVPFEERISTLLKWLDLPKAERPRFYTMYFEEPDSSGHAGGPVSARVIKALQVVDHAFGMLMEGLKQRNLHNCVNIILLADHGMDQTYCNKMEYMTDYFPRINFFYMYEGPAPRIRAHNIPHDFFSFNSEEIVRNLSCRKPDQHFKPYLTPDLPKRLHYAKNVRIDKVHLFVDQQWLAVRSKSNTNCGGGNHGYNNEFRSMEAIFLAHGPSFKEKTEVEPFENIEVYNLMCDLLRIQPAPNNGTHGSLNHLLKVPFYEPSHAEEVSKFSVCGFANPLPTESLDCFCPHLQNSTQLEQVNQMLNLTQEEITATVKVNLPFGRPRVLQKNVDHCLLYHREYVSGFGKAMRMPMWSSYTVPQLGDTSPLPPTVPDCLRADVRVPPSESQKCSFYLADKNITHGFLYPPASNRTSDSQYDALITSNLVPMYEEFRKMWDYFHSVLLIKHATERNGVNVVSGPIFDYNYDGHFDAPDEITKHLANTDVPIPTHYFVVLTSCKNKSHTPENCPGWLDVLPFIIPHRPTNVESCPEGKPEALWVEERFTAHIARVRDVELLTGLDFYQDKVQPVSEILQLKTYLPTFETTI
# human ENPP1 = molecular target: T2, human ENPP1 (Homo sapiens, UniProt P22413); assay: ENPP1 assay with ATP substrate (Transcreener AMP2/GMP2 TR-FRET); type: biochemical; settings: 1 hour at room temperature
# T2 construct: made in house
# T2 sequence (P22413 1-925): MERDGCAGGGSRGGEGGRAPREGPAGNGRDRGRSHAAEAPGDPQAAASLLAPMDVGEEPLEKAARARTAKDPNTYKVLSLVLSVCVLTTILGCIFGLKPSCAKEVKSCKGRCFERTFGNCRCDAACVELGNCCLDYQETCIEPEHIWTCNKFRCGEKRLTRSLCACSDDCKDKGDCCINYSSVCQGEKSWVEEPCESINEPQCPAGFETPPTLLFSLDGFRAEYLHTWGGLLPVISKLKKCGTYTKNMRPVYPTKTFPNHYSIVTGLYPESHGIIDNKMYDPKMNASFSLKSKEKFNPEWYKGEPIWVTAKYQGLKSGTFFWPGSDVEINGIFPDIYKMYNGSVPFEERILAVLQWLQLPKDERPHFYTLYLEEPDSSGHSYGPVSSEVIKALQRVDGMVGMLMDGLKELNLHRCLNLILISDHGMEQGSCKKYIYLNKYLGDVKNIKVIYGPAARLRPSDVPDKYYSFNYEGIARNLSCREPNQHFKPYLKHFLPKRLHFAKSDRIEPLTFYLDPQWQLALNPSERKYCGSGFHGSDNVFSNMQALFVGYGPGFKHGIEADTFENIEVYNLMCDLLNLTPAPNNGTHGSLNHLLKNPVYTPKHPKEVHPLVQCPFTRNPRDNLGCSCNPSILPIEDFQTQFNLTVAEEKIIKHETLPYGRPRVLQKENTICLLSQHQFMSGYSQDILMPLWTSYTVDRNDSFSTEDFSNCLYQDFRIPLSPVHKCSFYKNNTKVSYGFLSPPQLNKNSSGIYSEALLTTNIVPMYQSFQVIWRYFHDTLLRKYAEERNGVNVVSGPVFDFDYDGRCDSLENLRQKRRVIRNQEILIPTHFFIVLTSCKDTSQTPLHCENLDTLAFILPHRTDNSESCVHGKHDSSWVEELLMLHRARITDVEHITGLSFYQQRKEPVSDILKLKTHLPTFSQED
# How it was run: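 5′-AMP from ATP hydrolysis (300 nM ATP stock added; enzyme added as 8.5 μM stock) detected by competitive TR-FRET. Buffer: 50 mM Tris pH 7.5, 1 mM TCEP, 2 mM MgCl2, 0.005% Tween 20, 1% DMSO. Reaction 1 h at room temperature, EDTA stop. IC50 from 2-parameter variable-slope fit.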
Structure (SMILES),IC50 (ENPP3) [µM],IC50 (human ENPP1) [µM]
"Cc1csc2c(N3CCC(NCc4ccc(F)cc4)CC3)ncnc12 [Example 3.42, N-(4-Fluorobenzyl)-1-(7-methylthieno[3,2-d]pyrimidin-4-yl)piperidin-4-amine]",> 20,1 to 20
"Cn1ncc2c(N3CCC(NCCCc4ccncc4)CC3)nc(-c3ccccn3)nc21 [Example 2.20, 1-(1-Methyl-6-(pyridin-2-yl)-1H-pyrazolo[3,4-d]pyrimidin-4-yl)-N-(3-(pyridin-4-yl)propyl)piperidin-4-amine]",> 20,> 20
"NS(=O)(=O)c1ccc(CNc2nc(-c3ccncc3)nc3scc(-c4ccccc4)c23)s1 [Example 1.29, 5-(((5-Phenyl-2-(pyridin-4-yl)thieno[2,3-d]pyrimidin-4-yl)amino)methyl)thiophene-2-sulfonamide]",> 20,> 20
"NS(=O)(=O)c1ccc(CNc2nc(N3CCOCC3)nc3scc(-c4ccccc4)c23)cc1 [Example 1.38, 4-(((2-Morpholino-5-phenylthieno[2,3-d]pyrimidin-4-yl)amino)methyl)-benzenesulfonamide]",< 0.1,< 0.1
"NS(=O)(=O)c1ccc(CNc2cc(-c3ccccn3)nc3scc(-c4ccccc4)c23)cc1 [Example 1.47, 4-(((3-Phenyl-6-(pyridin-2-yl)thieno[2,3-b]pyridin-4-yl)amino)methyl)benzenesulfonamide]",1 to 20,< 0.1
"Cc1csc2c(N3CCC(NCCc4ccncc4)CC3)ncnc12 [Example 3.25, 1-(7-Methylthieno[3,2-d]pyrimidin-4-yl)-N-(2-(pyridin-4-yl)ethyl)piperidin-4-amine]",> 20,0.1 to 1
COc1cc(CCC(=O)NC2CCN(c3ncnc4c(C)csc34)CC2)ccn1 [Example 3.8],> 20,1 to 20
"Cn1ncc2c(NCc3ccc(S(N)(=O)=O)c(F)c3)ccnc21 [Example 2.67, 2-Fluoro-4-(((1-methyl-1H-pyrazolo[3,4-b]pyridin-4-yl)amino)methyl)benzenesulfonamide]",0.1 to 1,< 0.1
"Cn1ncc2c(NCc3ccc(S(N)(=O)=O)c(C(F)(F)F)c3)ncnc21 [Example 2.41, 4-(((1-Methyl-1H-pyrazolo[3,4-d]pyrimidin-4-yl)amino)methyl)-2-(trifluoromethyl)-benzenesulfonamide]",1 to 20,0.1 to 1
"NS(=O)(=O)N1CCC(CNc2ncnc3scc(-c4ccccc4)c23)CC1 [Example 1.66, 4-(5-Phenylthieno[2,3-d]pyrimidin-4-yl)aminomethyl-1-piperidinesulfonamide]",1 to 20,0.1 to 1
"Cn1ncc2c(NCc3ccc(S(N)(=O)=O)cc3)cc(N)nc21 [Example 2.78, 4-(((6-Amino-1-methyl-1H-pyrazolo[3,4-b]pyridin-4-yl)amino)methyl)-benzenesulfonamide]",0.1 to 1,0.1 to 1
"CCn1ncc2c(NCc3ccc(S(N)(=O)=O)cc3)ccnc21 [Example 2.122, 4-((1-Ethyl-1H-pyrazolo[3,4-b]pyridin-4-yl)aminomethyl)benzenesulfonamide]",1 to 20,< 0.1
"NS(=O)(=O)c1ccc(CNc2nc(NCCCO)nc3scc(-c4ccccc4)c23)cc1 [Example 1.51, 4-((2-(3-Hydroxypropyl)amino-5-phenylthieno[2,3-d]pyrimidin-4-yl)aminomethyl)-benzenesulfonamide]",< 0.1,< 0.1
"CN(c1ccccc1)c1nc(NCc2ccc(S(N)(=O)=O)cc2)c2cnn(C)c2n1 [Example 2.36, 4-(((1-Methyl-6-(methyl(phenyl)amino)-1H-pyrazolo[3,4-d]pyrimidin-4-yl)amino)methyl)-benzenesulfonamide]",0.1 to 1,> 20
"c1ccc(CNc2nc(-c3ccccn3)nc3scc(-c4ccccc4)c23)cc1 [Example 1.5, N-Benzyl-5-phenyl-2-(pyridin-2-yl)thieno[2,3-d]pyrimidin-4-amine]",> 20,> 20
"Cn1ncc2c(NCc3ccc(S(N)(=O)=O)s3)nc(Cl)nc21 [Example 2.85, 5-((6-Chloro-1-methyl-1H-pyrazolo[3,4-d]pyrimidin-4-yl)aminomethyl)thiophene-2-sulfonamide]",0.1 to 1,0.1 to 1
"Cn1ncc2c(NCc3ccc(S(N)(=O)=O)cc3)cc(N3CCOCC3)nc21 [Example 2.82, 4-(((1-Methyl-6-morpholino-1H-pyrazolo[3,4-b]pyridin-4-yl)amino)methyl)-benzenesulfonamide]",1 to 20,1 to 20
"Cc1cccc(CCC(=O)NC2CCN(c3ncnc4c(C)csc34)CC2)c1 [Example 3.15, N-(1-(7-Methylthieno[3,2-d]pyrimidin-4-yl)piperidin-4-yl)-3-(m-tolyl)propanamide]",> 20,> 20
"Cc1ccccc1CCCNC1CCN(c2ncnc3c(C)csc23)CC1 [Example 3.16, 1-(7-Methylthieno[3,2-d]pyrimidin-4-yl)-N-(3-(o-tolyl)propyl)piperidin-4-amine]",> 20,0.1 to 1
"Cc1nc(NCc2ccc(S(N)(=O)=O)cc2)c2c(C3CCCC3)nn(C)c2n1 [Example 2.135, 4-((3-Cyclopentyl-1,6-dimethyl-1H-pyrazolo[3,4-d]pyrimidin-4-yl)aminomethyl)benzenesulfonamide]",1 to 20,1 to 20
"Cc1noc2ncnc(NCc3ccc(S(N)(=O)=O)cc3)c12 [Example 2.59, 4-(((3-Methylisoxazolo[5,4-d]pyrimidin-4-yl)amino)methyl)benzenesulfonamide]",1 to 20,1 to 20
"NS(=O)(=O)c1ccc(CNc2nc(-c3ccccn3)nc3scc(-c4ccccc4)c23)cc1C(F)(F)F [Example 1.14, 4-(((5-Phenyl-2-(pyridin-2-yl)thieno[2,3-d]pyrimidin-4-yl)amino)methyl)-2-(trifluoromethyl)benzenesulfonamide]",0.1 to 1,< 0.1
"Cc1nc(N2CCC(NCCCc3ccncc3)CC2)c2scc(C)c2n1 [Example 3.52, 1-(2,7-Dimethylthieno[3,2-d]pyrimidin-4-yl)-N-(3-(pyridin-4-yl)propyl)piperidin-4-amine]",> 20,> 20
"Cc1cc(S(N)(=O)=O)ccc1CNc1ccnc2c1cnn2C [Example 2.69, 3-Methyl-4-(((1-methyl-1H-pyrazolo[3,4-b]pyridin-4-yl)amino)methyl)-benzenesulfonamide]",1 to 20,0.1 to 1
"Cc1nsc2c(N3CCC(NCCCc4ccc(F)cc4)CC3)ncnc12 [Example 3.59, N-(3-(4-Fluorophenyl)propyl)-1-(3-methylisothiazolo[4,5-d]pyrimidin-7-yl)piperidin-4-amine]",> 20,1 to 20
"Cn1ncc2c(NCc3ccc(S(N)(=O)=O)s3)nc(-c3ccccn3)nc21 [Example 2.24, 5-(((1-Methyl-6-(pyridin-2-yl)-1H-pyrazolo[3,4-d]pyrimidin-4-yl)amino)methyl)thiophene-2-sulfonamide]",0.1 to 1,0.1 to 1
